# Values joined by “and” are separate entries in the source; they are usually repeats but may differ in a detail not shown here. Identical values can stand only once. “Also recorded” adds a separate entry of the source. Counter-ions that a name gives are not always drawn. Like-named read-outs stand apart in the source and are kept apart here.
# Tests used:
# WT M2 [1] = target: T1, WT M2 (Influenza A virus, UniProt P0DOF5); assay: cell-based; settings: for inhibition at 100 µM: read-out: % inhibition at 100 µM in TEVC WT
# Target sequence in this assay (P0DOF5 whole entry, looked up): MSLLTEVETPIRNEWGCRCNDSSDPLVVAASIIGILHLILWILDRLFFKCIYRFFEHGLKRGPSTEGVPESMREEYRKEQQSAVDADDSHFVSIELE
# in vitro = settings: dog
# Procedure: Cytotoxicity towards MDCK cells was assayed after 48 h drug exposure with the MTT tetrazolium dye assay as described [55].
# WT M2 [2] = target: T1, WT M2; assay: cell-based; parameters: expressed in transfected cells; host or cells: Saccharomyces cerevisiae, multicopy plasmid, GAL1 promoter; settings: for growth of the strain expressing WT M2: 27% of control without amantadine, 48 h; for EC50: yeast expressing WT M2, growth measured after 40 h
# Target sequence in this assay (P0DOF5 whole entry): as the sequence (P0DOF5 whole entry, looked up) above
# [3] = tested on: influenza A/Udorn/72 WT virus; type: cell-based
# [4] = target: mammalian Na+/H+ exchanger; parameters: method as in PMID 3016497; settings: read-out: apparent Ki; cited from earlier work
# M2 channel = tested on: M2 channel; parameters: method as in PMID 20570509; settings: weaker than amantadine; cited from earlier work
# [5] = read-out: EC50, yeast growth restoration
Compound,inhibition at 100 µM (WT M2 [1]),EC50 (WT M2 [2]; [5]),also measured
"3-(2-methylbut-3-yn-2-yl)-6-(methylthio)-1,2,3,4-tetrahydro-1,3,5-triazine hydroiodide [Compound 27]",–,–,% inhibition at 100 µM in TEVC WT (WT M2 [1]): 17.0 ± 1.9
"NC12CC3CC(CC(C3)C1)C2 [Amantadine, reference compound]",92%,–,"CC50 (in vitro): ~100000 nM; growth of the strain expressing WT M2 (WT M2 [2]; 0.3 µM amantadine): 65 % of control; growth of the strain expressing WT M2 (WT M2 [2]; 1 µM amantadine): 95 % of control; growth increase (WT M2 [2]; 1 µM, 384-well plate assay, yeast expressing WT M2): 3 fold; growth of the strain expressing WT M2 (WT M2 [2]; 3 µM amantadine): 95 % of control"
"O=C1NC(=S)NC(=O)C1=CNC12CC3CC(CC(C3)C1)C2 [Compound 1, 5-[(1-adamantylamino)methylene]-2-thioxodihydro-4,6(1H,5H)-pyrimidinedione]",–,2500 nM,–
"CC(=O)Nc1ccc(S(=O)(=O)NC23CC4CC(CC(C4)C2)C3)cc1 [Compound 2, N1-(4-[(1-adamantylamino)sulfonyl]phenyl)acetamide]",–,5000 nM,–
"c1cc2c(cc1NC1C3CC4CC(C3)CC1C4)OCO2 (centres unmarked) [Compound 3, 2-adamantyl (1,3-benzodioxol-5-yl)amine]",–,20000 nM,–
"O=[N+]([O-])c1ccc(CNC23CC4CC(CC(C4)C2)C3)cc1 [Compound 4, 1-adamantyl (4-nitrobenzyl)amine]",43.5%,5000 nM,–
"O=[N+]([O-])c1ccccc1CNC1C2CC3CC(C2)CC1C3 (centres unmarked) [Compound 5, 2-adamantyl (2-nitrobenzyl)amine]",–,5000 nM,–
"CC(NC(=S)NC(=O)C=Cc1ccco1)C12CC3CC(CC(C3)C1)C2 (centres unmarked) [Compound 6, N-(([1-(1-adamantyl)ethyl]amino)carbonothioyl)-3-(2-furyl)acrylamide]",–,–,"inhibition of plaque formation [3]: almost completely inhibited; CC50 (in vitro): > 30000 nM; EC50 (WT M2 [2]; EC50, yeast growth restoration): 200 nM and < 1000 nM"
"CS/C(=N/C#N)NC12CC3CC(CC(C3)C1)C2 [Compound 7, (E)-methyl N-((3s,5s,7s)-adamantan-1-yl)-N'-cyanocarbamimidothioate]",–,12000 nM,–
"CNCC(=O)C12CC3CCC(CC(C3)C1)C2 [Compound 8, 2-(methylamino)-1-tricyclo[4.3.1.1~3,8~] undec-1-ylethanone hydrochloride]",–,3000 nM,–
"CCc1noc(C)c1C(=O)NCC12CC3CC(CC(C3)C1)C2 [Compound 9, N-(adamantan-1-ylmethyl)-3-ethyl-5-methyl-1,2-oxazole-4-carboxamide]",–,800 nM and < 1000 nM,–
"Cc1ncc(C23CC4CC(CC(C4)C2)C3)[nH]1 [Compound 10, 5-(adamantan-1-yl) -2-methyl-1H-imidazole]",–,–,"inhibition of plaque formation [3]: almost completely inhibited; CC50 (in vitro): > 100000 nM; EC50 (WT M2 [2]; EC50, yeast growth restoration): < 1000 nM and 300 nM"
"Cc1cc(C(=O)NC2C3CC4CC(C3)CC2C4)no1 (centres unmarked) [Compound 11, N-(adamantan-2-yl)-5-methyl-1,2-oxazole-3-carboxamide]",–,1500 nM,–
"C1CNC(NCC23CC4CC(CC(C4)C2)C3)=N1 [Compound 12, N-(adamantan-1-ylmethyl)-4,5-dihydro-1H-imidazol-2-amine hydroiodide]",–,400 nM and < 1000 nM,–
"OCC1CCCN1CC12CC3CC(CC(C3)C1)C2 (centres unmarked) [Compound 13, [1-(adamantan-1-ylmethyl)pyrrolidin-2-yl] methanol hydrochloride]",–,15000 nM,–
"NC(N)=NC(=O)c1nc(Cl)c(N2CCCCCC2)nc1N [Compound 14, Hexamethylene amiloride]",89.9%,–,"Ki [4]: 200 nM; CC50 (in vitro): 16000 nM; EC50 (WT M2 [2]; EC50, yeast growth restoration): 1100 nM and 1000 nM"
"C=C1C(N)CC2CC1C2(C)C (stereo not drawn) [Compound 15, 3-amino-beta-pinene]",–,500 nM and < 1000 nM,–

Compound,inhibition at 100 µM (WT M2 [1]),EC50 (WT M2 [2]; [5]),also measured
"CSC1=NCN(Cc2ccccc2)CN1 [Compound 18, 3-benzyl-6-(methylthio)-1,2,3,4-tetrahydro-1,3,5-triazine hydroiodide]",4.5%,12000 nM,–
"Cn1cccc1CNC1CCCCCCC1 [Compound 19, N-[(1-methyl-1H-pyrrol-2-yl)methyl] cyclooctanamine]",–,30000 nM,–
"CN(C)c1nc(N)c(C(=O)NC(=N)N)nc1Cl [Compound 20, 5-(N,N-Dimethyl)amiloride hydrochloride]",23.3 ± 1.9%,–,% inhibition at 100 µM in TEVC WT (WT M2 [1]): moderate inhibition
"CCN(c1nc(N)c(C(=O)NC(=N)N)nc1Cl)C(C)C [Compound 21, 5-(N-Ethyl-N-isopropyl)amiloride]",47.3 ± 0.5%,–,% inhibition at 100 µM in TEVC WT (WT M2 [1]): moderate inhibition
"CSC1=NCN(Cc2cccs2)CN1 [Compound 23, 6-(methylthio)-3-(thiophen-2-ylmethyl)-1,2,3,4-tetrahydro-1,3,5-triazine]",8.1 ± 1.7%,–,–
"CCSC1=NCN(Cc2ccco2)CN1 [Compound 24, 6-(ethylthio)-3-(furan-2-ylmethyl)-1,2,3,4-tetrahydro-1,3,5-triazine]",17.9 ± 2.8%,–,–
"Br.CSC1=NCN(C(C)(C)C)CN1 [Compound 25, 3-(tert-butyl)-6-(methylthio)-1,2,3,4-tetrahydro-1,3,5-triazine hydrobromide]",–,–,% inhibition at 100 µM in TEVC WT (WT M2 [1]): 13.3 ± 1.5
"Br.CSC1=NCN(CCCO)CN1 [Compound 26, 3-(4-(methylthio)-5,6-dihydro-1,3,5-triazin-1(2H)-yl)propan-1-ol hydrobromide]",–,–,% inhibition at 100 µM in TEVC WT (WT M2 [1]): 5.5 ± 0.9
"CCSC1=NCN(Cc2ccccc2)CN1 [Compound 28, 3-benzyl-6-(ethylthio)-1,2,3,4-tetrahydro-1,3,5-triazine]",5.4 ± 1.6%,–,–
"CCSC1=NCN(Cc2cccs2)CN1 [Compound 29, 6-(ethylthio)-3-(thiophen-2-ylmethyl)-1,2,3,4-tetrahydro-1,3,5-triazine]",6.7 ± 1.4%,–,–
"CCSC1=NCN(CCc2cccs2)CN1 [Compound 30, 6-(ethylthio)-3-(2-(thiophen-2-yl)ethyl)-1,2,3,4-tetrahydro-1,3,5-triazine]",1.1 ± 1.1%,–,–
"CCSC1=NCN(CC(C)C)CN1 [Compound 31, 6-(ethylthio)-3-isobutyl-1,2,3,4-tetrahydro-1,3,5-triazine]",1.2 ± 0.6%,–,–
"CCSC1=NCN(CC(C)(C)C)CN1 [Compound 32, 6-(ethylthio)-3-neopentyl-1,2,3,4-tetrahydro-1,3,5-triazine]",–,–,% inhibition at 100 µM in TEVC WT (WT M2 [1]): 4.7 ± 1.3
"CCSC1=NCN(CC2CCCCC2)CN1 [Compound 33, 3-(cyclohexylmethyl)-6-(ethylthio)-1,2,3,4-tetrahydro-1,3,5-triazine]",63.9 ± 2%,700 nM,–
"CCSC1=NCN(C2CCCCCCC2)CN1 [Compound 34, 3-cyclooctyl-6-(ethylthio)-1,2,3,4-tetrahydro-1,3,5-triazine]",89.7%,–,"inhibition of plaque formation [3]: completely inhibited; also recorded: moderate inhibition; CC50 (in vitro): 75000 nM; EC50 (WT M2 [2]; EC50, yeast growth restoration): 300 nM"
NC1CCCCCCC1 [Cyclooctylamine],–,–,binding affinity relative to amantadine (M2 channel): 6 fold

# — paper PMC3562233 (PLoS ONE, 2013)
